The results in this text go back to patent US20060073530A1 (priority 2001, published 2006).

For one experiment, the target named is SrtADN (Staphylococcus aureus, UniProt Q2FV99). Format: biochemical, S. aureus.
The target of experiment [1] is sortase (cleavage of sorting signals at the LPXTG motif) (Staphylococcus aureus, UniProt Q2FV99). The class given is cell-based, S. aureus OS2.
The target of the next experiment is SrtBΔN (Staphylococcus aureus, UniProt Q2FZE3, E55A/N120I/R216K). The class given is biochemical, S. aureus. The conditions noted are these: for SrtBΔN cleavage of NPQTN peptides: incubation of purified enzyme with inhibitor.
The target of another experiment is sortase (Staphylococcus aureus, UniProt Q2FV99). Format: biochemical, staphylococcal.
The test system of experiment [2] is Sec-dependent export of P1 precursor (SecA). Format: cell-based, S. aureus OS2.
The subject of experiment [3] is staphylococci. The class given is cell-based, S. aureus OS2.
In experiment [4] the test system is surface protein SEB-SPA490-524 (sortase acyl-enzyme intermediates). Format: cell-based, S. aureus.
The subject of experiment [5] is surface protein SEB-MH6-CWS. Format: cell-based, S. aureus OS2 and BB270.
In experiment [6] the test system is staphylococci. As to the kind of experiment: Growth of staphylococci in the presence of antibiotics. The class given is cell-based, S. aureus OS2.
The subject of experiment [7] is cell wall sorting of Seb-Spa490-524. The class given is cell-based, S. aureus OS2.
The subject of experiment [8] is bacterial cell wall synthesis. Format: cell-based, S. aureus.

Where “and” joins values, the source holds several entries; their conditions need not be identical. Equal values may be shown once. Entries after “also recorded” stand apart in the source; their conditions may differ. Read-outs that look alike come from different tables or passages of the source.

Regarding `O[C@H](CS)[C@H](O)CS` (racemic) [dithiothreitol], the “LPXTG peptide cleavage activity restored” value on SrtADN (MTSET-inactivated SrtADN incubated with 10 mM DTT) is listed as 80%. Moreover, the “cleavage of sorting signals at the LPXTG motif (cell wall sorting reaction)” value (shortened to “cleavage of sorting signals”) in experiment [1] is listed as “did not affect the sorting reaction”. On SrtBΔN (addition of DTT, even in the presence of MTSET), the “SrtB-mediated cleavage of NPQTN peptide” value is reported as “greatly stimulated SrtB-mediated cleavage”.
In the case of `O=C(O)CN(CCN(CC(=O)O)CC(=O)O)CC(=O)O` [EDTA], the “cleavage of sorting signals” value in [1] was “Neither PMSF, which reacts with hydroxyl (Creighton, 1993), nor treatment with the divalent cation chelator EDTA interfered with cell wall sorting”.
Consider `CS(=O)(=O)SCCS(=O)(=O)[O-].[Na+]` [MTSES], for which, in experiment [1], the “cleavage of sorting signals” value was “interfered with sorting albeit not as effectively as MTSET”.
As for `C[N+](C)(C)CCSS(C)(=O)=O` [MTSET, [2-(trimethylammonium)ethyl]methanethiosulfonate], the “hydroxylaminolysis of LPXTG peptide by SrtADN” value at SrtADN (pre-incubation with MTSET) is “abolished all enzymatic activity”. In addition, the “cleavage of sorting signals” value in experiment [1] is given as “sensitive; also recorded: interfered with the cleavage of sorting signals at the LPXTG motif”. Besides, on sortase (pre-incubation of staphylococcal extracts with MTSET), the “hydroxylaminolysis of LPXTG peptide” value was “inhibited”. Further, the “Sec-dependent export of P1 precursor” value in experiment [2] was “remained unaltered”. In addition, in the experiment on staphylococci [3], the “incorporation of [35S]methionine by staphylococci” value was “prevented incorporation”. The “SrtBΔN cleavage of NPQTN peptides” value at SrtBΔN is on record as “inhibited”.
For `CCN1C(=O)C=CC1=O` [N-ethylmaleimide], the “cleavage of sorting signals” value in experiment [1] is listed as “did not”.
For the compound `NO` [NH2OH, hydroxylamine], in [4], the “amounts of released surface proteins” value is “increased amounts of released surface proteins”; the “surface proteins released into the extra-cellular medium” value was 16.9% and 12.7%. Besides, the “fluorescence intensity (LPXTG peptide cleavage)” value at sortase (0.1 M NH2OH added to staphylococcal extracts) is on record as “forty fold increase in fluorescence intensity”. Also, in experiment [5], the “release of SEB-MH6-CWS” value is on record as “caused the release of SEB-MH6-CWS”.
For the compound `O=S(=O)(F)Cc1ccccc1` [PMSF], the “cleavage of sorting signals” value in experiment [1] is given as “Neither PMSF, which reacts with hydroxyl (Creighton, 1993), nor treatment with the divalent cation chelator EDTA interfered with cell wall sorting”.
Turning to `NC(=O)CI` [iodoacetamide], the “cleavage of sorting signals” value in experiment [1] is “did not”.
Turning to `O=C(O)CI` [iodoacetate], the “cleavage of sorting signals” value in experiment [1] is recorded as “did not”.
Regarding `OCCS` [mercaptoethanol], the “cleavage of sorting signals” value in [1] is “did not affect the sorting reaction”.
On to `CSS(C)(=O)=O` [methylmethane thiosulfonate], for which the “peptide bond hydrolysis / cleavage of LPETG peptide” value on SrtADN (SrtA DN, absence of the peptidoglycan substrate) is given as “inhibited”.
Turning to `O=C(O)c1cc[c]([Hg][OH])cc1` [pHMB, p-hydroxymercuribenzoic acid], on SrtADN (incubation of purified enzyme with inhibitor), the “SrtAΔN cleavage of LPXTG containing peptides” value was “inhibited”. The “cleavage of sorting signals” value in [1] was “chemical inhibitors of the sorting reaction; also recorded: displayed an inhibitory effect”. Besides, the “SrtBΔN cleavage of NPQTN peptides” value on SrtBΔN was “inhibited”.
`CC1(C)S[C@@H]2[C@H](NC(=O)Cc3ccccc3)C(=O)N2[C@H]1C(=O)O` [penicillin, penicillin G]: in the experiment with staphylococci [6], the “growth rate of staphylococci” value was “reduced the growth rate”. Further, in [7], the “rate of cell wall sorting (P2 precursor accumulation)” value (from here on “rate of cell wall sorting”) is listed as “did not alter the rate of cell wall sorting”.
For `CN[C@H](CC(C)C)C(=O)N[C@H]1C(=O)N[C@@H](CC(N)=O)C(=O)N[C@H]2C(=O)N[C@H]3C(=O)N[C@H](C(=O)N[C@H](C(=O)O)c4cc(O)cc(O)c4-c4cc3ccc4O)[C@H](O)c3ccc(c(Cl)c3)Oc3cc2cc(c3O[C@@H]2O[C@H](CO)[C@@H](O)[C@H](O)[C@H]2O[C@H]2C[C@](C)(N)[C@H](O)[C@H](C)O2)Oc2ccc(cc2Cl)[C@H]1O` [vancomycin], the “growth rate of staphylococci” value in the experiment on staphylococci [6] was “reduced the growth rate”. Moreover, in experiment [8], the “inhibition of cell wall synthesis” value was 20 fold and the “ratio of incorporated [3H]lysine/[3H]leucine” value is 1.5. Also, the “rate of cell wall sorting” value in experiment [7] was “steady accumulation of P2 precursor”.
With moenomycin, the “growth rate of staphylococci” value in the experiment with staphylococci [6] (10 μg/ml antibiotic, compared to mock treated control) was “reduced the growth rate”. Besides, the “rate of cell wall sorting” value in experiment [7] is listed as “similar, albeit weaker effect”.
